In patent US20110039763A1, “TARGETED ANTIMICROBIAL MOIETIES” (C3 JIAN, INC., priority 2009, published 2011):

Experiments:
microorganisms [1] = assay: Morphology, biofilm and growth disrupting peptides (Table 5); type: cell-based; set-up: key: A: Peptide aggregates; B: Less hyphal formation; Clumps; Diffuse clumps and small polyps; F: Diffuse growth; H: Thin; I: Growth inhibition; Microcolony formation; Rippled; Small polyps; Thick; W: Halo formation on top, microlonies on bottom
Excerpt: In certain embodiments peptides that induce alterations in phenotype or other biological activities can also be used as antimicrobial effector moieties.

T. rubrum = assay: MIC test / antimicrobial activity, T. rubrum; type: cell-based, Trichophyton rubrum
Outline: (§1)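 Broth microdilution with ~1×10^5 cfu/mL organisms in TH broth (S. mutans) or Mueller-Hinton broth (other organisms). Peptides added as 2-fold serial dilutions, then incubated 18-24 h at 37° C. Experiments run 10 times.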

E. faecalis = assay: MIC test / antimicrobial activity, E. faecalis; type: cell-based, Enterococcus faecalis
Procedure: (§2) The active AMPs, STAMPs and the like can be identified and/or validated using an in vitro screening assay.
(§3) It will be appreciated that other assays as are well known in the art or that will become apparent to those having skill in the art upon review of this disclosure may also be used to identify active AMPs. Such assays include, for example, the assay described in Lehrer et al. (1988) J. Immunol.
(§4) Peptides were evaluated for basic antimicrobial activity by broth microdilution, as described previously (Eckert et al. (2006) Antimicrob Agents Chemother., 50: 3651-3657; Eckert et al. (2006) Antimicrob Agents Chemother., 50: 1480-1488). Briefly, ˜1×10^5 cfu/mL bacteria were diluted in TH (S. mutans), or Mueller-Hinton (MH) broth (all other organisms) and distributed to 96-well plates. Serially-diluted (2-fold) peptides were then added and the plates incubated at 37° C. for 18-24 h. […] All experiments were conducted 10 times.

MRSA = assay: MIC test / antimicrobial activity, MRSA; type: cell-based, Methicillin-resistant Staphylococcus aureus
Outline: as §1

A. niger = assay: MIC test / antimicrobial activity, A. niger; type: cell-based, Aspergillus niger
Procedure: as §2, §3, §4

microorganisms [2] = assay: Peptide activities: targeting/binding, antimicrobial, growth or phenotype altering (Tables 7, 8); type: cell-based; conditions: peptides having multiple activities
B. subtilis = assay: MIC test / antimicrobial activity, B. subtilis; type: cell-based, Bacillus subtilis; conditions: B. subtilis
Outline: as §1

C. albicans = assay: MIC test / antimicrobial activity, C. albicans; type: cell-based, Candida albicans
Procedure: as §2, §3, §4

S. epidermidis = assay: MIC test (broth microdilution) / antimicrobial activity, S. epidermidis; type: cell-based, Staphylococcus epidermidis; conditions: S. epidermidis
Outline: as §1

MRFGSLALVAYDSAIKHSWPRPSSVRRLRM [PF-672]
Organism, effect (microorganisms [1]; B. subtilis): B. subtilis (I) | Organism, effect (microorganisms [1]; C. albicans): C. albicans (I) | Organism, effect (microorganisms [1]; C. jeikeium): C. jeikeium (R) | Organism, effect (microorganisms [1]; E. faecalis): E. faecalis (I) | Organism, effect (microorganisms [1]; MRSA): MRSA (I) | Organism, effect (microorganisms [1]; S. epidermidis): S. epidermidis (I) | Organism, effect (microorganisms [1]; S. pneumoniae): S. pneumoniae (I) | Organism MIC (μM) (T. rubrum): T. rubrum, 0.78 μM | Organism MIC (μM) (E. faecalis): E. faecalis, 3.13 μM | Organism MIC (μM) (MRSA): MRSA, 1.56 μM | Organism MIC (μM) (A. niger): A. niger, 3 μM | Activities (microorganisms [2]): G B M | Organism MIC (μM) (B. subtilis): B. subtilis, 0.78 μM | Organism MIC (μM) (C. albicans): C. albicans, 1.56 μM | Organism MIC (μM) (S. epidermidis): S. epidermidis, 0.39 μM
